The values that follow come from the NIST ThermoML archive (doi:10.1021/acs.jced.8b00170).

± gives the expanded uncertainty stated by the source.

The term mass density denotes the mass of a sample divided by its volume.

For data set [1] the following is noted: Crystal; DTA.
Data set [2] can be described thus: Molar enthalpy of transition or fusion. The note with it: Crystal; DSC.
A short description of data set [3]: wn = mass fraction of the nth substance listed. The note with it: 101.3 kPa, Liquid, Pycnometric method.

As for `Cc1ccc2c(c1)C(=O)OC2=O` [4-methylphthalic anhydride], in data set [1], the Normal melting temperature was 88.2 ± 2 °C. Moreover, the “Molar enthalpy of transition or fusion” value in data set [2] came out at 18.8 ± 1.1 kJ/mol.
On to `Cc1ccc2c(c1)C(=O)OC2=O` [4-methylphthalic anhydride] + CCOC(C)=O, for which the mass density in data set [3] (288.15 K, w1 = 0.2202) amounted to 933 ± 18 kg/m3; in data set [3] (298.15 K, w1 = 0.2878) it was 948 ± 18 kg/m3; in data set [3] (308.15 K, w1 = 0.3605), 964 ± 19 kg/m3.
Regarding `O=Cc1ccc2ccccc2c1` [β-naphthaldehyde] + CCOC(C)=O, the mass density in data set [3] (288.15 K, w1 = 0.2851) came out at 944 ± 18 kg/m3; in data set [3] (298.15 K, w1 = 0.3937), 957 ± 19 kg/m3; in data set [3] (308.15 K, w1 = 0.5686) it was 975 ± 18 kg/m3.
